Laboratory results from patent US20090069443A1, “Sedative Effect-Imparting Agent And Sedative Perfume Composition Containing The Same” (Shiseido Co., Ltd., priority 2005, published 2009).
“Also recorded” adds a separate entry of the source.

System: healthy adult females
Assay: CNV (contingent negative variation) brain wave measurement of sedative effect
Format: in vivo, human
Settings: 1 mass % solution in ethanol, inhaled from cotton pad below the nose; three to six healthy adult females; FIG. 1
Excerpt: Measured was fluctuation in the negative potential of the event-related potential, a type of brain wave, which is also called contingent negative variation (hereinafter, referred to as CNV). The fluctuation intensity of the earlier component of the CNV brain wave is reported to show a positive correlation with the level of consciousness such as attention or expectation, and thus, the CNV brain wave can be used for quantitative evaluation of the effect of a fragrance on the consciousness level (sedated/stimulated) (Torii S. et al., Contingent negative variation (CNV) and the psychological effects of odour. In Perfumery: The Psychology and Biology of Fragrance, Edited by Toller S. V. and Dodd G. H., pp. 107-120, Chapman and Hall, London (1998)).
In the present invention, electrodes were adhered to the […] (Cz) and the left ear (A1) of a subject, and the voltage between the electrodes was measured with an electroencephalograph. The subject was made to listen to a click sound via headphone and push a switch in hand in response to a light-emitting diode flashing few seconds after the click sound, and the CNV brain wave was determined during the operation. In the test with fragrance, a perfume composition was allowed to penetrate into a square cotton pad of approximately 0.5 0.5 cm in size; the cotton pad was placed below the nose; and the subject was allowed to inhale the fragrance together with normal breathing during the series of operations above. […] The CNV brain waves were measured 30 times with and without fragrance respectively, and the fragrance effect was evaluated by comparing the integrated values of the earlier component of the CNV brain wave 400 to 1,000 ms after the click.
o-dimethoxybenzene (o-DMB), m-dimethoxybenzene (m-DMB), and p-dimethoxybenzene (p-DMB) were dissolved respectively in ethanol, to give 1 mass % solutions, and the effect thereof on CNV was measured according to the test method as above. […]

Row | SMILES | sedative effect (effect on CNV)
1 | COc1ccccc1OC [o-dimethoxybenzene] | favorable effect that leads the subject to sedative direction; also recorded: particularly favorable sedative effect
2 | COc1cccc(OC)c1 [m-dimethoxybenzene] | favorable effect that leads the subject to sedative direction; also recorded: particularly favorable sedative effect
3 | COc1ccc(OC)cc1 [p-dimethoxybenzene] | favorable effect that leads the subject to sedative direction
